Reference: patent US7553929B2, “Cell permeable peptides for inhibition of inflammatory reactions and methods of use” (Vanderbilt University, priority 1994, dated 2009)

How the values were obtained:
NIH 3T3 cells [1] = test: DNA synthesis by flow cytometric analysis in serum-starved NIH 3T3 cells; format: cell-based; conditions: 15 ng ml^−1, 20 h
Method: To further confirm the mitogenic activity of the SA peptide, its effect on DNA synthesis was examined. Serum-starved NIH 3T3 cells were treated with SA peptide, fixed, and the DNA concentration was determined by standard flow cytometric analysis. Specifically, confluent NIH 3T3 cells (1.3×10^6 cells) were serum-starved in DMEM containing 0.5% FBS for 2 days. The cells were untreated (control) or treated with SA peptide or aFGF for 20 h, harvested, spun down, and washed with serum-free PBS, three times. The cells were fixed with methanol precooled to −20° C. for DNA analysis carried out by the Flow Cytometry Research Service of Vanderbilt University. The data were the mean ±S.E.M. of six measurements and were analyzed for statistical significance by analysis of variance.

NIH 3T3 cells [2] = conditions: aFGF binding to FGF receptors on NIH 3T3 cells; cited from earlier work
NIH 3T3 cells [3] = test: [3H]thymidine incorporation (mitogenic response) of NIH 3T3 cells; format: cell-based; conditions: serum-starved NIH 3T3 cells, 16 h + 4 h
Method: A 26-residue hybrid peptide (referred to as SA, listed herein as SEQ ID NO:3) was designed and synthesized. […] Thus, the SA peptide differs from the SM peptide only in its 7-residue carboxyl terminal “cargo” region. A functional assay was performed in which SA peptide was able to induce a mitogenic response of NIH 3T3 cells measured by [^3H]thymidine incorporation in a manner similar to aFGF bearing, the same NLS. ^18
In this functional assay, confluent 3T3 cells grown initially in DMEM containing 10% FBS were transferred to a low serum medium (DMEM containing 0.5% FBS) for 2 days. The test peptides, either SA peptide, SAα pep-tide, ANL peptide, or SM peptide, or aFGF, were added to a fresh low serum medium at the indicated concentrations at 37° C. After 16 hours, [^3H]thymidine was added and 4 hours later, the cells were washed with PBS, treated with trichloroacetic acid, solubilized with 0.15 M NaOH, and the radioactivity was determined in a liquid scintillation counter.
Bars represent the mean±S.E.M. of at least three independent experiments done in triplicate and calculated as multiplicity of counts in the tested sample over the control sample. SA peptide within the concentration range used (0 to 46 μM) was not cytotoxic as determined by staining with fluorescein diacetate/ethidium bromide. ^20

For aFGF: acidic fibroblast growth factor, the “Diploid % S Phase” value (NIH 3T3 cells [1]) is listed as 27.8 ± 2.3 (P < 0.05) %, the “Tyrosine phosphorylation of intracellular proteins” value (NIH 3T3 cells [2]) is listed as “induces the tyrosine phosphorylation” and the “Stimulation of [3H]thymidine incorporation over control” value (NIH 3T3 cells [3]) is listed as about 8 fold.
